{"source": "patent US20100311714A1", "about": "“1H-IMIDAZO[4,5-c]QUINOLINONE COMPOUNDS” (priority 2009, published 2010)", "key": {"PI3K delta": {"target": "T1, PI3K delta (Homo sapiens, UniProt O00329)", "T1 construct": "for the full-length p110-d subunit are generated and fused by overlapping PCR; His tag (C); made in house; host or cells: baculovirus BV1060; Tn5 (Trichoplusia ni) or TiniPro insect cells", "T1 sequence (O00329 with tags, fused parts or gaps limits assumed)": "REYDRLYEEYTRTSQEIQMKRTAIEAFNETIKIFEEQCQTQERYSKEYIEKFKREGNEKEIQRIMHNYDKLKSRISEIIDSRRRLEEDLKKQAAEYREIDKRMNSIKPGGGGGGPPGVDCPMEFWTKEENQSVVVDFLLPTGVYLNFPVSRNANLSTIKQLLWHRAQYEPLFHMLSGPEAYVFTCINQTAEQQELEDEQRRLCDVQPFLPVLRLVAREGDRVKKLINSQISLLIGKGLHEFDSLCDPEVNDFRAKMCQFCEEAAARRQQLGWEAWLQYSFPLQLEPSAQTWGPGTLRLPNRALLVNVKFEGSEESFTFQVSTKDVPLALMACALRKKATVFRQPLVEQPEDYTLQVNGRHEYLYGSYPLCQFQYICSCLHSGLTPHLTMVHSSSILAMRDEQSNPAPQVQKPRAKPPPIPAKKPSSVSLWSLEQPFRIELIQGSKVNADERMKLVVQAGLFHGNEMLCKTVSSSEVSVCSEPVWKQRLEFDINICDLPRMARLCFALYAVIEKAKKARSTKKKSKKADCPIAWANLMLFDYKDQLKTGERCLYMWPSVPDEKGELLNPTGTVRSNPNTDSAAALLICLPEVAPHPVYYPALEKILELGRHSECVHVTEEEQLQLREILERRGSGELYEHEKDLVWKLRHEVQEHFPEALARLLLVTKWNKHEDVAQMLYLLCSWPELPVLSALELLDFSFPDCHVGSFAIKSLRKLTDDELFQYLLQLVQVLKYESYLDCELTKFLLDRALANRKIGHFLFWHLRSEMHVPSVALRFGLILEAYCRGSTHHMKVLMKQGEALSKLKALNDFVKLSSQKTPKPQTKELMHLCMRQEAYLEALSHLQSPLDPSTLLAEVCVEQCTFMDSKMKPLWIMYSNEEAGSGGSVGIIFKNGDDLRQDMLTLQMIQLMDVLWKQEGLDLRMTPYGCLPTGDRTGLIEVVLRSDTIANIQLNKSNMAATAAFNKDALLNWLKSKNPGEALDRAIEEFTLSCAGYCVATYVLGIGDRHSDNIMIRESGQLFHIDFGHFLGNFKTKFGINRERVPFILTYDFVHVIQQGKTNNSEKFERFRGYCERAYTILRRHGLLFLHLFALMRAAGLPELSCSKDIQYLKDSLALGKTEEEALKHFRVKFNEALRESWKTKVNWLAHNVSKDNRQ", "assay": "PI3K delta kinase assay (Kinase-Glo luminescence)", "type": "biochemical", "conditions": "read-out: EPK_PI3Kdelta/IC50", "method": "(§1) In a more preferred assay, the kinase reaction is performed in a final volume of 10 μL per well of a low volume non binding CORNING, 384 well black plate (Cat. No. #3676). The final concentrations of ATP and phosphatidyl inositol (PI) in the assay are 1 μM and 10 μg/mL respectively. The reaction is started by the addition of ATP.\n(§2) The components of the assay are added per well as follows:\n(§3) 50 nL test compounds in 90% DMSO per well, in columns 1-20, 8 concentrations (⅓ and 1/3.33 serial dilution step) in single. • Low control: […] of 90% DMSO in half the wells of columns 23-24 (0.45% in final). • High control: 50 nL of reference compound (e.g. compound of Example 7 in WO 2006/122806) in the other half of columns 23-24 (2.5 μM in final). • Standard: 50 nL of reference compound as just mentioned diluted as the test compounds in columns 21-22 • 20 mL ‘buffer’ are prepared per assay: • 200 μL of 1M TRIS HCl pH7.5 (10 mM in final) • 60 μL of 1M MgCl2 (3 mM in final) • 500 μL of 2M NaCl (50 mM in final) • 100 μL of 10% CHAPS (0.05% in final) • 200 μL of 100 mM DTT (1 mM in final) • 18.94 mL of nanopure water • 10 mL ‘PI’ are prepared per assay: • 200 μL of 1 mg/ml L-alpha-Phosphatidylinositol (Liver Bovine, Avanti Polar Lipids Cat. No. 840042C MW=909.12) prepared in 3% OctylGlucoside (10 μg/ml in final) • 9.8 mL of ‘buffer’ • 10 mL ‘ATP’ are prepared per assay: • 6.7 μL of 3 mM stock of ATP giving a final concentration of 1 μM per well • 10 mL of ‘buffer’ • 2.5 mL of each PI3K construct are prepared per assay in ‘PI’ with the following final concentration: • 10 nM PI3K alfa EMV B1075 • 25 nM beta EMV BV949 • 10 nM delta EMV BV1060 • 150 nM gamma EMV BV950 • 5 μL of ‘PI/PI3K’ are added per well. • 5 μl ‘ATP’ are added per well to start the reaction. • The plates are then incubated at room temperature for 60 minutes (alfa, beta, delta) or 120 minutes (gamma). • The reaction is terminated by the addition of 10 μL Kinase-Glo (Promega Cat. No. #6714). • The assay plates are read after 10 minutes in Synergy 2 reader (BioTek, Vermont USA) with an integration time of 100 milliseconds and sensitivity set to 191. • Output: The High control is around 60′000 counts and the Low control is 30′000 or lower • This luminescence assay gives a useful Z′ ratio between 0.4 and 0.7\nPI3Kδ BV-1060 p85(iSH2)-Gly Linker-p110d(Full-Length)-C-Term His Tag\nPI3K delta is purified in three chromatographic steps: immobilized metal affinity chromatography on a Ni Sepharose resin (GE Healthcare), gel filtration utilizing a Superdex 200 26/60 column (GE Healthcare), and finally a anion exchange step on a Q-HP column (GE Healthcare). All buffers are chilled to 4° C. and lysis is performed chilled on ice. Column fractionation is performed rapidly at room temperature. Typically frozen insect cells are lysed in a hypertonic lysis buffer and applied to a prepared IMAC column. The resin is washed with 3-5 column volumes of lysis buffer, followed by 3-5 column volumes wash buffer containing 45 mM imidazole, and the target protein is then eluted with a buffer containing 250 mM imidazole. Fractions are analyzed by Coomassie stained SDS-PAGE gels, and fractions containing the target protein are pooled and applied to a prepared GFC column. Fractions from the GFC column are analyzed by Coomassie stained SDS-PAGE gels, and fractions containing the target protein are pooled. The pool from the GFC column is diluted into a low salt buffer and applied to a prepared Q-HP column. The column is washed with low salt buffer until a stable A280 baseline absorbance is achieved, and eluted using a 20 column volume gradient from 0 mM NaCl to 500 mM NaCl. Again, fractions from the Q-HP column are analyzed by Coomassie stained SDS-PAGE gels, and fractions containing the target protein are pooled. The final pool is dialyzed into a storage buffer containing 50% glycerol and stored at −20° C. The final pool is assayed for activity in the phosphoinostitol kinase assay. […]"}, "PI3K beta": {"target": "T2, PI3K beta (Homo sapiens, UniProt P42338)", "T2 construct": "for the full-length p110-b subunit are generated and fused by overlapping PCR; His tag (C); made in house; host or cells: baculovirus BV949; Tn5 (Trichoplusia ni) or TiniPro insect cells", "T2 sequence (P42338 with tags, fused parts or gaps limits assumed)": "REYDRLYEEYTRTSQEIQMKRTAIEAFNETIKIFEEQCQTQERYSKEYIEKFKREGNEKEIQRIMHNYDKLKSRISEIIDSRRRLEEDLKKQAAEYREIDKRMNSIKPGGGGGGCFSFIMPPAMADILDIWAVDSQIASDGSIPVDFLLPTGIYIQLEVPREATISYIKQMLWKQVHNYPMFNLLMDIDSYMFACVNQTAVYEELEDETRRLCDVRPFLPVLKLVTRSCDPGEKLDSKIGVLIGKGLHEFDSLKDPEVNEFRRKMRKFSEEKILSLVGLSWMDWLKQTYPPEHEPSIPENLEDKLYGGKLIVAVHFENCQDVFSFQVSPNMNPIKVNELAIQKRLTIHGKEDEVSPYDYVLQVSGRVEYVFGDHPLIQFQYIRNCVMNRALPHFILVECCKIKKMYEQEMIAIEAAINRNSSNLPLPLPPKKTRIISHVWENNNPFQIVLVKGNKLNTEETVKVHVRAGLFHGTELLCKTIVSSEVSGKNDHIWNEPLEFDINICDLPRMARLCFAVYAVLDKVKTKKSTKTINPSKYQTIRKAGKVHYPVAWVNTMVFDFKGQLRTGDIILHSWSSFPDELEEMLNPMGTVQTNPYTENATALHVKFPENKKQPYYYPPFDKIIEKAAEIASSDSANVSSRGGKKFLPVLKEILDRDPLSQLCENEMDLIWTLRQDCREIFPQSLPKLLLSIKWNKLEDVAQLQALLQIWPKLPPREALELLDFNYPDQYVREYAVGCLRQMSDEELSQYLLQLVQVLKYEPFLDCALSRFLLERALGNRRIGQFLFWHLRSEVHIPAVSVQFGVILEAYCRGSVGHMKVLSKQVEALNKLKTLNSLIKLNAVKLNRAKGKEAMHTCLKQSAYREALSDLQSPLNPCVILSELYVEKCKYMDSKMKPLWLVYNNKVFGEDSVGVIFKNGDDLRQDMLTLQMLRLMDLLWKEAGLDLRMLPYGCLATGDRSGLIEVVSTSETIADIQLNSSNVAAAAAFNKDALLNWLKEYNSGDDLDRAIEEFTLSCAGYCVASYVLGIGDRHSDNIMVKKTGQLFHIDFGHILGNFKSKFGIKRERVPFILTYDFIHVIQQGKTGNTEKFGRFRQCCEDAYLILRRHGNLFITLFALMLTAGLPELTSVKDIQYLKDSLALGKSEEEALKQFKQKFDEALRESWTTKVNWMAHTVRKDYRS", "assay": "PI3K beta kinase assay (Kinase-Glo luminescence)", "type": "biochemical", "conditions": "read-out: EPK_PI3Kbeta/IC50", "method": "as §1, §2, §3\nPI3Kβ BV-949 p85(iSH2)-Gly linker-r 110b(full-length)-C-term His Tag\nPI3K beta is purified in two chromatographic steps: immobilized metal affinity chromatography (IMAC) on a Ni Sepharose resin (GE Healthcare) and gel filtration (GFC) utilizing a Superdex 200 26/60 column (GE Healthcare). All buffers are chilled to 4° C. and lysis is performed chilled on ice. Column fractionation is performed rapidly at room temperature.\n(§4) IC50 is determined by a four parameter curve fitting routine that comes along with “excel fit”. A 4 Parameter logistic equation is used to calculate IC50 values (IDBS XLfit) of the percentage inhibition of each compound at 8 concentrations (usually 10, 3.0, 1.0, 0.3, 0.1, 0.030, 0.010 and 0.003 μM). Alternatively, IC50 values are calculated using idbsXLfit model 204, which is a 4 parameter logistic model."}, "PI3K alfa": {"target": "T3, PI3K alfa (Homo sapiens, UniProt P42336)", "T3 construct": "His tag (C); made in house; host or cells: baculovirus BV1075; Tn5 (Trichoplusia ni) or TiniPro insect cells", "T3 sequence (P42336 with tags, fused parts or gaps limits assumed)": "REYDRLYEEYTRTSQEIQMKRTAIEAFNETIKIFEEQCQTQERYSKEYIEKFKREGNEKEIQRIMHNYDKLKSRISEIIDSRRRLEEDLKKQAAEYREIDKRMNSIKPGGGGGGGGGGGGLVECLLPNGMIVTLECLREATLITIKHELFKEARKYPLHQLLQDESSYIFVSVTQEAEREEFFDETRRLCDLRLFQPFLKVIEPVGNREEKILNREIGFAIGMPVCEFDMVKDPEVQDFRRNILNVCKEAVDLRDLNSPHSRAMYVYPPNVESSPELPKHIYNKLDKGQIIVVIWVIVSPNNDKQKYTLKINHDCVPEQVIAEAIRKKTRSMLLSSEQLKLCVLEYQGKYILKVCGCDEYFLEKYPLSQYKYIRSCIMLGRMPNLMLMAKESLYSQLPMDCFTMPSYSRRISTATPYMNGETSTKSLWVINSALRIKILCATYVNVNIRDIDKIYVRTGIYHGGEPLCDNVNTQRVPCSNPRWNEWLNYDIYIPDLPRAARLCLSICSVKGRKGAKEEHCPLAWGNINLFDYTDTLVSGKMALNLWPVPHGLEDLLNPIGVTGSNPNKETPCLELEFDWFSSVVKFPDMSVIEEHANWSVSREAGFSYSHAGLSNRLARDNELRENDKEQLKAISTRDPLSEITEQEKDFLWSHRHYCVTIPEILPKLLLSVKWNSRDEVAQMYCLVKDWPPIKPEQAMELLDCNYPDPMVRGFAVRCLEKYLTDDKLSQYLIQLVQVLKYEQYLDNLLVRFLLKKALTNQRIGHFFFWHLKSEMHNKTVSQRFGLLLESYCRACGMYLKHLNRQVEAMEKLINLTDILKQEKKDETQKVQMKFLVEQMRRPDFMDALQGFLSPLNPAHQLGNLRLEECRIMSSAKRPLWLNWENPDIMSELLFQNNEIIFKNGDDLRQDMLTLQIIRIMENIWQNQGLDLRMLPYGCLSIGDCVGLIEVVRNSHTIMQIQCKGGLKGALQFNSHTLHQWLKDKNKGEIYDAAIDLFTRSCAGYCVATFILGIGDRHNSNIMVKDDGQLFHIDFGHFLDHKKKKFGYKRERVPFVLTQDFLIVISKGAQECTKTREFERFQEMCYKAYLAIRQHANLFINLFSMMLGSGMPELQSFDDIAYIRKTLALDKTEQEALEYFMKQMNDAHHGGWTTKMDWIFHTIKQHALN", "assay": "PI3K alpha kinase assay (Kinase-Glo luminescence)", "type": "biochemical", "conditions": "read-out: EPK_PI3Kalfa/IC50", "method": "as §1, §2, §3\nTwo different constructs, BV 1052 and BV 1075, are used to generate the PI3 Kinase α proteins for compound screening.\nPI3K alpha is purified in three chromatographic steps: immobilized metal affinity chromatography on a Ni Sepharose resin (GE Healthcare, belonging to General Electric Company, Fairfield, Conn., USA), gel filtration utilizing a Superdex 200 26/60 column (GE Healthcare), and finally a cation exchange step on a SP-XL column (GE Healthcare). All buffers are chilled to 4° C. and lysis is performed chilled on ice. Column fractionation is performed rapidly at room temperature.\nas §4"}, "mTOR": {"target": "T4, mTOR (Homo sapiens, UniProt P42345)", "T4 construct": "purchased Invitrogen Corporation (Carlsbad/Calif., USA) PV4753", "T4 sequence (P42345 1360-2549 limits assumed)": "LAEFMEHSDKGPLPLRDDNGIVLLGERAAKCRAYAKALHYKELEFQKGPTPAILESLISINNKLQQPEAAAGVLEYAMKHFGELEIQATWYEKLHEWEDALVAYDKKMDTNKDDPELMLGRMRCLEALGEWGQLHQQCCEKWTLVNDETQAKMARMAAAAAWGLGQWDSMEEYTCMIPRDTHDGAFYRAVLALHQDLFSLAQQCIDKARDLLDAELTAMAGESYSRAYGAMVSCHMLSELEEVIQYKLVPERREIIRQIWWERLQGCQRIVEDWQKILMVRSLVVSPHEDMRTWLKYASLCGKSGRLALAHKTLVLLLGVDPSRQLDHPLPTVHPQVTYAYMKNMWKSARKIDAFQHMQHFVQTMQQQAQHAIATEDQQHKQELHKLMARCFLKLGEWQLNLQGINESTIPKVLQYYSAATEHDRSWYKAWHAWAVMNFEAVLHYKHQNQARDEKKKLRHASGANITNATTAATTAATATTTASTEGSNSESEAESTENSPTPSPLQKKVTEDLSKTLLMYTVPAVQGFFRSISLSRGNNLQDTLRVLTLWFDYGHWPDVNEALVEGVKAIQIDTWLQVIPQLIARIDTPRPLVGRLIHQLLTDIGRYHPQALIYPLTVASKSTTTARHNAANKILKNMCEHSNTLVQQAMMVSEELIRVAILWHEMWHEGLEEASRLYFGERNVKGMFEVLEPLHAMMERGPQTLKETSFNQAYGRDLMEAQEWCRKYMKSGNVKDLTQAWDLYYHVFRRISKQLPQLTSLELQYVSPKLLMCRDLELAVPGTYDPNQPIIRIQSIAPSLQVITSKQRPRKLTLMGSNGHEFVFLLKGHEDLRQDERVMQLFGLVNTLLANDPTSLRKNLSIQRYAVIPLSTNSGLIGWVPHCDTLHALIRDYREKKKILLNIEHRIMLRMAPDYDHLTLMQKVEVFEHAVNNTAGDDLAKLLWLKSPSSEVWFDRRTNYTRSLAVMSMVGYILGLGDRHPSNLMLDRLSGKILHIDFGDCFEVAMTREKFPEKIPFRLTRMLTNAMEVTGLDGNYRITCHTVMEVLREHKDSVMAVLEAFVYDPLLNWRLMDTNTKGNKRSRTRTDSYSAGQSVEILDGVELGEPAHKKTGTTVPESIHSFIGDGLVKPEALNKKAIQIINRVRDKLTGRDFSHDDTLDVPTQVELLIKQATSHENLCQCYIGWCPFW", "assay": "Biochemical assay for m-TOR by TR-FRET", "conditions": "read-out: EPK_mTOR/IC50", "method": "Biochemical Assay for m-TOR by TR-FRET.\nAssay components are purchased from Invitrogen Corporation (Carlsbad/Calif., USA): GFP-4EBP1 (Cat. No. PV4759), Tb3+-α-p4EBP1 [pThr46] Antibody (Cat. No. PV4757), proprietary TR-FRET dilution buffer (Cat. No. PV3574), mTOR protein (Cat. No. PV4753).\n50 nL of compound dilutions (final concentration of 10, 3.0, 1.0, 0.3, 0.1, 0.03, 0.01 and 0.003 μM) are dispensed onto black 384-well low volume non-binding polystyrene (Cat. No. NBS#3676, Corning, Lowell/Mass., USA). Then 5 μL of ATP (8 μM final concentration) and GFP-4EBP1 (400 nM final concentration) with 5 μL mTOR proteins (0.5 nM final concentration) are incubated at rt. The standard reaction buffer for the TR-FRET mTOR assay contained 50 mM HEPES pH 7.5, 10 mM MnCl2, 50 mM NaCl, 1 mM EGTA, 1 mM DTT. Reactions were stopped with 10 μL of a mixture of EDTA containing the Tb3+-α-p4EBP1[pT46] detection Ab (0.5 nM) in TR-FRET dilution buffer (proprietary to IVG). Plates are read 15 mins later in a Synergy2 reader using an integration time of 0.2 seconds and a delay of 0.1 seconds. Control for the 100% inhibition of the kinase reaction is performed by replacing the mTOR kinase by the standard reaction buffer. The control for the 0% inhibition is given by the solvent vehicle of the compounds (90% DMSO in H2O). A standard compound is used as a reference compound and included in all assay plates in the form of 16 dilution points in duplicate."}}, "note": "pIC50: −log10 of the molar value."}
{"smiles": "CCNc1ncc(-c2ccc3ncc4c(c3c2)n(-c2ccc(N3CC[C@@H](O)C3)nc2C)c(=O)n4C)cn1", "note": "[Example 34.3, 8-(2-Ethylamino-pyrimidin-5-yl)-1-[6-((R)-3-hydroxy-pyrrolidin-1-yl)-2-methyl-pyridin-3-yl]-3-methyl-1,3-dihydro-imidazo[4,5-c]quinolin-2-one]", "values": [{"measurement": "pIC50", "setting": "PI3K delta", "value": 7.74}, {"measurement": "pIC50", "setting": "PI3K beta", "value": 6.38}, {"measurement": "pIC50", "setting": "PI3K alfa", "value": 7.35}, {"measurement": "pIC50", "setting": "mTOR", "value": 7.96}]}
{"smiles": "CCNc1ncc(-c2ccc3ncc4c(c3c2)n(-c2ccc(N3CC[C@H](O)C3)nc2C)c(=O)n4C)cn1", "note": "[Example 32.10, 8-(2-Ethylamino-pyrimidin-5-yl)-1-[6-((S)-3-hydroxy-pyrrolidin-1-yl)-2-methyl-pyridin-3-yl]-3-methyl-1,3-dihydro-imidazo[4,5-c]quinolin-2-one]", "values": [{"measurement": "pIC50", "setting": "PI3K delta", "value": 7.70}, {"measurement": "pIC50", "setting": "PI3K beta", "value": 6.40}, {"measurement": "pIC50", "setting": "PI3K alfa", "value": 7.36}, {"measurement": "pIC50", "setting": "mTOR", "value": 7.82}]}
